Where “and” joins values, the source holds several entries; their conditions need not be identical. Equal values may be shown once. Inconclusive results and toxic doses are left out. Rule as the data show it: active = T/C of 150% or more; inactive = T/C below 125%.
System: L1210 leukemia ip in BDF1 mice, survival T/C
Experiment: NCI In Vivo Anticancer Drug Screen. Data for tumor model L1210 Leukemia (intraperitoneal) in B6D2F1 (BDF1) mice
Conditions: endpoint: mean survival time, higher = longer survival
Procedure, shortened: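 Tumor was transplanted into mice, which were then dosed with test compound or vehicle alone. Survival was recorded for each group, and the treated figure was expressed relative to the control figure.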

[1] = dose: 100.0 mg/kg/injection, schedule: Q01DX009 (ip), vehicle: Klucel (hydroxypropylcellulose) (HPC)
[2] = dose: 200.0 mg/kg/injection, schedule: Q01DX009 (ip), vehicle: Klucel (hydroxypropylcellulose) (HPC)
[3] = dose: 400.0 mg/kg/injection, schedule: Q01DX009 (ip), vehicle: Klucel (hydroxypropylcellulose) (HPC)
[4] = dose: 100.0 mg/kg/injection, schedule: Q01DX001 (ip), vehicle: saline
[5] = dose: 200.0 mg/kg/injection, schedule: Q01DX001 (ip), vehicle: saline
[6] = dose: 400.0 mg/kg/injection, schedule: Q01DX001 (ip), vehicle: saline
[7] = dose: 100.0 mg/kg/injection, schedule: Q04DX003 (ip), vehicle: Klucel (hydroxypropylcellulose) (HPC)
[8] = dose: 25.0 mg/kg/injection, schedule: Q04DX003 (ip), vehicle: Klucel (hydroxypropylcellulose) (HPC)
[9] = dose: 50.0 mg/kg/injection, schedule: Q04DX003 (ip), vehicle: Klucel (hydroxypropylcellulose) (HPC)
[10] = dose: 100.0 mg/kg/injection, schedule: Q01DX001 (ip), vehicle: Klucel (hydroxypropylcellulose) (HPC)
[11] = dose: 200.0 mg/kg/injection, schedule: Q01DX001 (ip), vehicle: Klucel (hydroxypropylcellulose) (HPC)
[12] = dose: 400.0 mg/kg/injection, schedule: Q01DX001 (ip), vehicle: Klucel (hydroxypropylcellulose) (HPC)
[13] = dose: 100.0 mg/kg/injection, schedule: Q01DX001 (ip), vehicle: carboxymethylcellulose (CMC)
[14] = dose: 200.0 mg/kg/injection, schedule: Q01DX001 (ip), vehicle: carboxymethylcellulose (CMC)
[15] = dose: 400.0 mg/kg/injection, schedule: Q01DX001 (ip), vehicle: carboxymethylcellulose (CMC)
[16] = dose: 100.0 mg/kg/injection, schedule: Q04DX003 (ip), vehicle: saline with Tween-80
[17] = dose: 200.0 mg/kg/injection, schedule: Q04DX003 (ip), vehicle: saline with Tween-80
[18] = dose: 400.0 mg/kg/injection, schedule: Q04DX003 (ip), vehicle: saline with Tween-80
[19] = dose: 200.0 mg/kg/injection, schedule: Q04DX003 (ip), vehicle: Klucel (hydroxypropylcellulose) (HPC)

Measured: T/C

c1ccc(C2OC(c3ccccc3)C(c3ccccc3)OC2c2ccccc2)cc1 (configuration not stated)
inactive: [1] 92 % of control | [2] 97 % of control | [3] 92 % of control

CCC(C(=O)OC)C(=O)c1ccccc1 (configuration not stated)
inactive: dose: 50.0 mg/kg/injection, schedule: Q01DX001 (ip), vehicle: saline 107 % of control | [4] 102 % of control | [5] 107 % of control | [6] 96 % of control

CCCCCCCCCCCCNC(=O)CC(O)(CC(=O)O)C(=O)O (configuration not stated)
inactive: [7] 96 % of control

Nc1nc(CCl)cs1
inactive: [8] 103 % of control | [9] 95 % of control | [7] 98 % of control and 100 % of control

O=C(OCc1ccccc1)c1cc(I)c(OCc2ccccc2)c(I)c1
inactive: [4] 98 % of control | [5] 98 % of control | [6] 98 % of control

O=C(NCCCl)NCC1CCCCO1 (configuration not stated)
inactive: [10] 100 % of control | [1] 108 % of control | [11] 98 % of control | [2] 108 % of control | [12] 86 % of control | [3] 101 % of control

CC1(C(=O)O)NCCS1 (configuration not stated)
inactive: [13] 95 % of control | [14] 90 % of control | [15] 90 % of control

CCOC(=O)/C(C#N)=C/c1cccn1Cc1cc2c(cc1[N+](=O)[O-])OCO2
inactive: dose: 25.0 mg/kg/injection, schedule: Q04DX002 (ip), vehicle: Klucel (hydroxypropylcellulose) (HPC) 104 % of control | dose: 50.0 mg/kg/injection, schedule: Q04DX002 (ip), vehicle: Klucel (hydroxypropylcellulose) (HPC) 100 % of control | dose: 100.0 mg/kg/injection, schedule: Q04DX002 (ip), vehicle: Klucel (hydroxypropylcellulose) (HPC) 100 % of control

O=C(O)C#Cc1ccccc1
inactive: [8] 107 % of control | [9] 98 % of control | [4] 100 % of control | [7] 96 % of control

O=C(O)c1oc(Br)cc1Br
inactive: dose: 12.5 mg/kg/injection, schedule: Q04DX003 (ip), vehicle: other 96 % of control | dose: 25.0 mg/kg/injection, schedule: Q04DX003 (ip), vehicle: other 102 % of control | dose: 50.0 mg/kg/injection, schedule: Q04DX003 (ip), vehicle: other 101 % of control

COc1cc(/C=N/NC(=O)c2cccc([N+](=O)[O-])c2)ccc1O
inactive: [13] 98 % of control | dose: 100.0 mg/kg/injection, schedule: Q01DX009 (ip), vehicle: carboxymethylcellulose (CMC) 97 % of control and 107 % of control | dose: 100.0 mg/kg/injection, schedule: Q04DX002 (ip), vehicle: carboxymethylcellulose (CMC) 101 % of control and 108 % of control | [14] 96 % of control | dose: 200.0 mg/kg/injection, schedule: Q01DX009 (ip), vehicle: carboxymethylcellulose (CMC) 93 % of control and 103 % of control | dose: 200.0 mg/kg/injection, schedule: Q04DX002 (ip), vehicle: carboxymethylcellulose (CMC) 101 % of control and 104 % of control | [15] 91 % of control | dose: 400.0 mg/kg/injection, schedule: Q01DX009 (ip), vehicle: carboxymethylcellulose (CMC) 97 % of control and 100 % of control | dose: 400.0 mg/kg/injection, schedule: Q04DX002 (ip), vehicle: carboxymethylcellulose (CMC) 104 % of control and 105 % of control

O=C(O)C1C2C=CC(C2)C1C(=O)Nc1ccccc1 (configuration not stated)
inactive: [16] 106 % of control | [17] 96 % of control | [18] 101 % of control

C=CCN1C(=O)C(CCCCCCCCCCCC)C(=O)NC1=S (configuration not stated)
inactive: dose: 75.0 mg/kg/injection, schedule: Q01DX001 (ip), vehicle: other 101 % of control | dose: 150.0 mg/kg/injection, schedule: Q01DX001 (ip), vehicle: other 95 % of control | dose: 300.0 mg/kg/injection, schedule: Q01DX001 (ip), vehicle: other 90 % of control

O=C1/C(=C/c2ccc([N+](=O)[O-])cc2)SC(=S)N1C1OC(CO)C(O)C(O)C1O (configuration not stated)
inactive: dose: 25.0 mg/kg/injection, schedule: Q01DX005 (ip), vehicle: water 95 % of control | dose: 50.0 mg/kg/injection, schedule: Q01DX005 (ip), vehicle: water 95 % of control | dose: 100.0 mg/kg/injection, schedule: Q01DX005 (ip), vehicle: water 93 % of control

CC(/C=C\C1CCCCC1)=C\C=C\C(C)=C\C=N\Nc1ccc([N+](=O)[O-])cc1[N+](=O)[O-]
inactive: dose: 1.56 mg/kg/injection, schedule: Q01DX001 (ip), vehicle: saline with Tween-80 95 % of control | dose: 3.13 mg/kg/injection, schedule: Q01DX001 (ip), vehicle: saline with Tween-80 95 % of control | dose: 6.25 mg/kg/injection, schedule: Q01DX001 (ip), vehicle: saline with Tween-80 95 % of control | dose: 50.0 mg/kg/injection, schedule: Q01DX001 (ip), vehicle: saline with Tween-80 89 % of control

O=C1C(Cl)=C(Nc2ccc(Cl)c(Cl)c2)C(=O)c2ccccc21
inactive: [16] 98 % of control | [17] 92 % of control | [18] 98 % of control

Cc1c(C)c([N+](=O)[O-])c(C)c(C)c1[N+](=O)[O-]
inactive: [1] 91 % of control | [7] 96 % of control | [2] 98 % of control | [19] 100 % of control | [3] 93 % of control | dose: 400.0 mg/kg/injection, schedule: Q04DX003 (ip), vehicle: Klucel (hydroxypropylcellulose) (HPC) 101 % of control

Cc1ccc(S(=O)(=O)c2ccc(C)c(N)c2)cc1N
inactive: dose: 100.0 mg/kg/injection, schedule: Q04DX002 (ip), vehicle: saline 105 % of control | dose: 200.0 mg/kg/injection, schedule: Q04DX002 (ip), vehicle: saline 99 % of control | dose: 400.0 mg/kg/injection, schedule: Q04DX002 (ip), vehicle: saline 96 % of control

O=C1NCN(c2ccccc2)C12CCNCC2
inactive: dose: 25.0 mg/kg/injection, schedule: Q01DX009 (ip), vehicle: saline sonified 108 % of control | dose: 25.0 mg/kg/injection, schedule: Q04DX003 (ip), vehicle: saline with Tween-80 89 % of control | dose: 50.0 mg/kg/injection, schedule: Q01DX009 (ip), vehicle: saline sonified 98 % of control | dose: 50.0 mg/kg/injection, schedule: Q04DX003 (ip), vehicle: saline with Tween-80 94 % of control | dose: 100.0 mg/kg/injection, schedule: Q01DX009 (ip), vehicle: saline sonified 103 % of control | dose: 100.0 mg/kg/injection, schedule: Q04DX003 (ip), vehicle: saline sonified 95 % of control | [16] 89 % of control

COc1ccc(OC)c2ncccc12
inactive: [4] 104 % of control

O=C(NCCCl)Nc1ccc2c3c1CCCC3CC2 (configuration not stated)
inactive: [9] 106 % of control | [7] 107 % of control | [19] 102 % of control

COC(OC)c1[nH]c(=S)[nH]c(=O)c1Cc1cccc2ccccc12
inactive: [10] 105 % of control | dose: 100.0 mg/kg/injection, schedule: Q01DX009 (ip), vehicle: saline with Tween-80 96 % of control | [16] 100 % of control | [11] 105 % of control | dose: 200.0 mg/kg/injection, schedule: Q01DX009 (ip), vehicle: saline with Tween-80 89 % of control | [17] 100 % of control | [12] 96 % of control | dose: 400.0 mg/kg/injection, schedule: Q01DX009 (ip), vehicle: saline with Tween-80 93 % of control | [18] 102 % of control

Source: PubChem BioAssay AID248 (DTP/NCI, 2004)
